According to patent US20240247021A1, “CRYSTAL FORMS OF KUDING SAPONIN A COMPOUND, PHARMACEUTICAL COMPOSITION AND USE THEREOF” (SHANGHAI KE PHARMACEUTICAL CO., LTD, priority 2021, published 2024):
Each block holds one compound with its values, some of them ahead of it.

Test: Conditions under which the crystal forms exist stably
Type: physicochemical

SMILES: C[C@@H]1O[C@@H](O[C@H]2[C@H](O[C@H]3CC[C@]4(C)[C@H]5C[C@H](O)C6=C7[C@]8(CC[C@](C)(OC8=O)[C@@]7(C)O)CC[C@@]6(C)[C@]5(C)CC[C@H]4C3(C)C)OC[C@H](O)[C@@H]2O[C@@H]2O[C@H](CO)[C@@H](O)[C@H](O)[C@H]2O)[C@H](O)[C@H](O)[C@H]1O [crystal form B, Kudinoside A]
- conditions under which the crystal form exists stably: can only exist stably at high temperature

SMILES: C[C@@H]1O[C@@H](O[C@H]2[C@H](O[C@H]3CC[C@]4(C)[C@H]5C[C@H](O)C6=C7[C@]8(CC[C@](C)(OC8=O)[C@@]7(C)O)CC[C@@]6(C)[C@]5(C)CC[C@H]4C3(C)C)OC[C@H](O)[C@@H]2O[C@@H]2O[C@H](CO)[C@@H](O)[C@H](O)[C@H]2O)[C@H](O)[C@H](O)[C@H]1O [crystal form E, Kudinoside A]
- conditions under which the crystal form exists stably: can only exist stably when the sample is wet

SMILES: C[C@@H]1O[C@@H](O[C@H]2[C@H](O[C@H]3CC[C@]4(C)[C@H]5C[C@H](O)C6=C7[C@]8(CC[C@](C)(OC8=O)[C@@]7(C)O)CC[C@@]6(C)[C@]5(C)CC[C@H]4C3(C)C)OC[C@H](O)[C@@H]2O[C@@H]2O[C@H](CO)[C@@H](O)[C@H](O)[C@H]2O)[C@H](O)[C@H](O)[C@H]1O [crystal form G, Kudinoside A]
- conditions under which the crystal form exists stably: can only exist stably when the sample is wet

- conditions under which the crystal form exists stably: cannot exist stably
SMILES: C[C@@H]1O[C@@H](O[C@H]2[C@H](O[C@H]3CC[C@]4(C)[C@H]5C[C@H](O)C6=C7[C@]8(CC[C@](C)(OC8=O)[C@@]7(C)O)CC[C@@]6(C)[C@]5(C)CC[C@H]4C3(C)C)OC[C@H](O)[C@@H]2O[C@@H]2O[C@H](CO)[C@@H](O)[C@H](O)[C@H]2O)[C@H](O)[C@H](O)[C@H]1O [crystal form I2, Kudinoside A]

SMILES: C[C@@H]1O[C@@H](O[C@H]2[C@H](O[C@H]3CC[C@]4(C)[C@H]5C[C@H](O)C6=C7[C@]8(CC[C@](C)(OC8=O)[C@@]7(C)O)CC[C@@]6(C)[C@]5(C)CC[C@H]4C3(C)C)OC[C@H](O)[C@@H]2O[C@@H]2O[C@H](CO)[C@@H](O)[C@H](O)[C@H]2O)[C@H](O)[C@H](O)[C@H]1O [crystal form L, Kudinoside A]
- conditions under which the crystal form exists stably: can only exist stably at high temperature

SMILES: C[C@@H]1O[C@@H](O[C@H]2[C@H](O[C@H]3CC[C@]4(C)[C@H]5C[C@H](O)C6=C7[C@]8(CC[C@](C)(OC8=O)[C@@]7(C)O)CC[C@@]6(C)[C@]5(C)CC[C@H]4C3(C)C)OC[C@H](O)[C@@H]2O[C@@H]2O[C@H](CO)[C@@H](O)[C@H](O)[C@H]2O)[C@H](O)[C@H](O)[C@H]1O [crystal form D, Kudinoside A]
- conditions under which the crystal form exists stably: can only exist stably when the sample is wet
